Measured values reported in US20030109418A1, “Methods for identifying compounds for inhibition of neoplastic lesions, and pharmaceutical compositions containing such compounds” (priority 1999, published 2003).
Where two headings read alike, the source gives them in different places.

Key:
[1] = molecular target: T1, purified cyclooxygenase (Type 1, COX-I) from ram seminal vesicles (Ovis aries, UniProt P05979); experiment: COX inhibition assay, purified cyclooxygenase; type: biochemical; conditions: for COX Inhibition: qualitative activity profile; for inhibition at 100 µM: read-out: Cyclooxygenase inhibitory activity, % Inhibition at 100 μM
T1 construct: using purified cyclooxygenase from ram seminal vesicles as described previously; tissue Cayman Chemical, Ann Arbor, Mich; (named in the general protocol only); host or cells: ram seminal vesicles
T1 sequence (P05979 25-600): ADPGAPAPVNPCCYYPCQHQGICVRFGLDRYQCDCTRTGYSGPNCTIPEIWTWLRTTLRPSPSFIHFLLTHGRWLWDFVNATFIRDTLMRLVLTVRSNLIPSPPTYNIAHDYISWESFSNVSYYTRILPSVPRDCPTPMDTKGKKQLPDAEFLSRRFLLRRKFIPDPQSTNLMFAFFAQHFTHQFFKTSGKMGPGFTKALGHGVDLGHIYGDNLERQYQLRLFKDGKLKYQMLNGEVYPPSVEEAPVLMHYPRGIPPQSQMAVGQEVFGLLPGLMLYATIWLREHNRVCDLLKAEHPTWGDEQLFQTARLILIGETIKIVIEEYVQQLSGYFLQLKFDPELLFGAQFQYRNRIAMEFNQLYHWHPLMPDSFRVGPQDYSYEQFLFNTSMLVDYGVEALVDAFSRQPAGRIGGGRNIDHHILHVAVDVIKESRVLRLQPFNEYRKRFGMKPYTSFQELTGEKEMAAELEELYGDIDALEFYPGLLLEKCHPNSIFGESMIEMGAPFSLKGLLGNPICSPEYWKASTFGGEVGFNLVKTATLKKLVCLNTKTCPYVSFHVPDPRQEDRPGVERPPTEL

[2] = tested on: cGMP PDE purified from human colon HT-29 cultured tumor cells; experiment: cGMP PDE inhibition assay; type: biochemical; conditions: for PDE Inhibition: qualitative activity profile; for IC50: read-out: IC50 for inhibition of cGMP PDE, HT-29 cell enzyme
[3] = tested on: HT-29 colon adenocarcinoma cells; experiment: Apoptosis by DNA fragmentation assay in HT-29; type: cell-based, human; as to Apoptosis: key: −: Not active; +: Slightly active; ++: Moderately active; +++: Strongly active; ++++: Highly active
[4] = tested on: HT-29 human colon carcinoma cell line; experiment: Growth inhibition, SRB assay, HT-29; type: cell-based; parameters: Growth Inhibition: key to the marks not given beside the values
[5] = tested on: premalignant lesions in mouse mammary gland organ culture; experiment: Mammary gland organ culture model; type: cell-based; conditions: qualitative activity profile; also: key: −: Not active; +: Slightly active; ++: Moderately active; +++: Strongly active; ++++: Highly active
Excerpt: Test compounds identified by the above methods can be tested for antineoplastic activity by their ability to inhibit the incidence of pre-neoplastic lesions in a mammary gland organ culture system. This mouse mammary gland organ culture technique has been successfully used by other investigators to study the effects of known antineoplastic agents such as certain NSAIDs, retinoids, tamoxifen, selenium, and certain natural products, and is useful for validation of the screening method of the present invention.
For example, female BALB/c mice can be treated with a combination of estradiol and progesterone daily, in order to prime the glands to be responsive to hormones in vitro. The animals are sacrificed, and thoracic mammary glands are excised aseptically and incubated for ten days in growth media supplemented with insulin, prolactin, hydrocortisone, and aldosterone. DMBA (7,12-dimethylbenz(a)anthracene) is added to medium to induce the formation of premalignant lesions. Fully developed glands are then deprived of prolactin, hydrocortisone, and aldosterone, resulting in the regression of the glands but not the pre-malignant lesions.
The test compound is dissolved in DMSO and added to the culture media for the duration of the culture period. At the end of the culture period, the glands are fixed in 10% formalin, stained with alum carmine, and mounted on glass slides. The incidence of forming mammary lesions is the ratio of the glands with mammary lesions to […]. The incidence of mammary lesions in test compound treated glands is compared with that of the untreated glands.
The extent of the area occupied by the mammary lesions can be quantitated by projecting an image of the gland onto a digitation pad. The area covered by the gland is traced on the pad and considered as 100% of the area. The space covered by each of the non-regressed structures is also outlined on the digitization pad and quantitated by the computer.
Mammary gland organ culture experiment were performed as previously described (Mehta and Moon, Cancer Research, 46: 5832-5835, 1986). […] The data support the hypothesis that cyclooxygenase inhibition is not necessary for the anti-neoplastic properties of desired compounds.

[6] = tested on: SW-480 colon adenocarcinoma cells
[7] = molecular target: T2, PDE peak A (PDE5) from SW480 cells (Homo sapiens, UniProt O76074); experiment: cGMP hydrolysis inhibition, PDE peak A from SW480; type: biochemical
T2 construct: endogenous in cells; host or cells: SW480 colon cancer cells, DEAE-Trisacryl M fraction

[8] = molecular target: novel cGMP-specific PDE peak B from SW480 cells (Homo sapiens); experiment: cGMP hydrolysis inhibition, novel PDE peak B (Section IA) from SW480; type: biochemical; conditions: Section IA Peak B, cGMP hydrolysis, 0.25 μM 3H-cGMP
Sequence of novel cGMP-specific PDE peak B from SW480 cells (Homo sapiens) (O00408 2-941): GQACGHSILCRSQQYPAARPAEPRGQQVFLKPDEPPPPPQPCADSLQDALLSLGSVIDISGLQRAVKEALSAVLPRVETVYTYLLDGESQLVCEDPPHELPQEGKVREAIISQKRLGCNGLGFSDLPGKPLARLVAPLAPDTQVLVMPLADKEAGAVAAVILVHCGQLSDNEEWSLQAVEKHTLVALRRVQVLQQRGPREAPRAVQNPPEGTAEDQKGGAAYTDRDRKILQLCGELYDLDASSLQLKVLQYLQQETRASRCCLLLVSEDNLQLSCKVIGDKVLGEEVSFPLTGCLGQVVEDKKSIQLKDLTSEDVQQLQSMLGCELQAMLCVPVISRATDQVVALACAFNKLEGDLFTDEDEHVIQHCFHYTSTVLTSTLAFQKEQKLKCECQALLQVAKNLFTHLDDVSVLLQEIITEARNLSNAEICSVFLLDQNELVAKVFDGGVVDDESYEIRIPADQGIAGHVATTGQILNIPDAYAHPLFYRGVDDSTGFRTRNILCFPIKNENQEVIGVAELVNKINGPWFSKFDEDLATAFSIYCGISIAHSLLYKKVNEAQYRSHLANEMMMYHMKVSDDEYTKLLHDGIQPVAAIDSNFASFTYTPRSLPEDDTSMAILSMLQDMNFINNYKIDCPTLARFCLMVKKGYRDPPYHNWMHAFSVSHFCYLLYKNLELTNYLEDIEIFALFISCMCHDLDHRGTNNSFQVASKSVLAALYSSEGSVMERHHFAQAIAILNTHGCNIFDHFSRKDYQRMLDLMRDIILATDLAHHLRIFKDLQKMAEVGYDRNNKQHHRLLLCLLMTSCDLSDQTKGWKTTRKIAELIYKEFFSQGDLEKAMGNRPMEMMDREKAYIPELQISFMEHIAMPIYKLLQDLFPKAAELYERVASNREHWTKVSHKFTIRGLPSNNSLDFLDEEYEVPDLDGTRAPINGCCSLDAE

[9] = molecular target: T3, classic PDE2 (Peak B) from SW480 (Homo sapiens, UniProt O00408); experiment: Inhibition of classic PDE2 Peak B isolated with ethylene glycol buffers; type: biochemical
T3 construct: endogenous in cells; host or cells: SW480 cells, non-FPLC DEAE column with 30% ethylene glycol buffers
T3 sequence (O00408 whole entry): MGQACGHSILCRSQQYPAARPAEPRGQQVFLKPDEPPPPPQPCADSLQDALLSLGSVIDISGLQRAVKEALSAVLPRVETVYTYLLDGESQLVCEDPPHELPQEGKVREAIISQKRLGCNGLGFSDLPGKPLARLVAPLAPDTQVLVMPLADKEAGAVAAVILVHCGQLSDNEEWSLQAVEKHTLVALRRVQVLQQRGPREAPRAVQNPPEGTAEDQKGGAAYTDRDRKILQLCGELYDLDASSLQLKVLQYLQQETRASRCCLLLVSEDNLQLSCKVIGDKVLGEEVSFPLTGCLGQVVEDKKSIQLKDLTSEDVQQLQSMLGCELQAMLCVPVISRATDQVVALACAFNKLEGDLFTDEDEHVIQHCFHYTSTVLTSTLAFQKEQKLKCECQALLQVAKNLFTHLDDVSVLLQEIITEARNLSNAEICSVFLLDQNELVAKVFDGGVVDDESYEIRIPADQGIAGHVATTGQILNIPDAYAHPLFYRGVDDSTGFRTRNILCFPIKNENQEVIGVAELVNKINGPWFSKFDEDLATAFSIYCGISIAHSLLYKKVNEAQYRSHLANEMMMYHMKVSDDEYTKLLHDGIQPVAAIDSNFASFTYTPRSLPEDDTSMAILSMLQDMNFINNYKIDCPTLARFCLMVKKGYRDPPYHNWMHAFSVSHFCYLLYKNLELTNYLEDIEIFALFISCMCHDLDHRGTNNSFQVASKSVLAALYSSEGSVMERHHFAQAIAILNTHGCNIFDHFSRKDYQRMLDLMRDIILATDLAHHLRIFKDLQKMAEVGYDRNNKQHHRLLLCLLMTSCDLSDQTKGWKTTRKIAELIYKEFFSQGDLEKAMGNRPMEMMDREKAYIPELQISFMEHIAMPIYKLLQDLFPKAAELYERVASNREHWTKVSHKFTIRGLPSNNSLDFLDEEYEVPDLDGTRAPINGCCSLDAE
Description: A second method used to isolate classic PDE2 from SW480 was done using a non-FPLC DEAE column procedure described above (see Section IA) with the modification that the buffers contained 30% ethylene glycol, 10 mM TLCK and 3.6 mM β-mercaptoethanol. The addition of these reagents to the buffers causes a shift in the elution profile (see FIG. 25) from low to high sodium acetate so that peak A moves from 40 to 150 mM, peak B from 75 to 280 mM and peak C from 200 to 500 mM Na acetate (see FIG. 25).

[10] = tested on: SW-480 colon adenocarcinoma cells; experiment: Apoptosis fold induction protocol (DNA fragmentation ELISA); conditions: cell line not given
[11] = tested on: PDE4 purified from human colon HT-29 cultured tumor cells; experiment: PDE4 inhibition assay; type: biochemical; conditions: HT-29 cell enzyme
[12] = molecular target: T4, cGMP binding sites of the GST-cGB-PDE5 protein (Homo sapiens, UniProt O76074); experiment: cGMP binding assay with GST-cGB-PDE5 fusion protein; conditions: 3H-cGMP 2 μM
T4 construct: made in house; host or cells: E. coli BL21 (DE3)

[13] = tested on: peak B's from SW480, HTB-26, and LnCAP; experiment: cGMP PDE activity of peak B's isolated by FPLC; type: biochemical; conditions: 100 nM inhibitor
Description: The novel Peak B was also isolated from two other neoplastic cell lines, a breast cancer cell line, HTB-26 and a prostate cancer cell line, LnCAP by a procedure similar to the one above used to isolate it from SW480. The protocol was modified in several respects. To provide even greater reproducibility to allow comparison of different cell lines, a Pharmacia AKTA FPLC was used to control sample loading and elution on an 18 mL DEAE TrisAcryl M column. SW840 was run by this same procedure multiple times to provide a reference of peak B. 200-400 million cells of SW480 were used for the profiles. 70 million cells of LnCAP were used for a profile (see FIGS. 22 and 23), and in a separate experiment 32 million cells of HTB-26 were used for a profile (see FIGS. 20 and 21). After re-suspending cells in homogenization buffer, samples were manually homogenized. FPLC buffer A was 8 mM TRIS-acetate, 5 mM Mg acetate, 0.1 mM EDTA, pH 7.5 and buffer B was 8 mM TRIS-acetate, 5 mM Mg acetate, 0.1 mM EDTA, 1 M Na acetate, pH 7.5. Supernatants were loaded onto the column at 1 mL per minute, followed by a wash with 60 mL buffer A at 1 mL per minute. A gradient was run from 0-15% buffer B in 60 mL, 15-50% buffer B in 60 mL, and 50-100% buffer B in 16 mL. During the gradient 1.5 mL fractions were collected.

[14] = molecular target: novel cGMP-specific PDE peak B from SW480 cells (Homo sapiens, UniProt O00408); experiment: cGMP hydrolysis inhibition, novel PDE peak B (Section IA) from SW480; type: biochemical
Sequence of novel cGMP-specific PDE peak B from SW480 cells (O00408 2-941): as the sequence (O00408 2-941) above

Colo 205 = experiment: Growth inhibition, neutral red assay, Colo 205; type: cell-based, human; conditions: Homo sapiens, COLO 205; neutral red assay (Schmid et al.)
Description: (§1) Compound I's activity is not confined to activity against colon cancer cell lines or animal models of colon cancer. It has a broad range of anti-neoplastic effects in various neoplastic cell lines. Various types of human cancer cell lines were propagated under sterile conditions in RPMI 1640 medium with 10% fetal bovine serum, 2 mM L-glutamine and sodium bicarbonate. To determine growth inhibitory effects of Compound I, cells were seeded in 96-well plates at a density of 1000 cells per well. Twenty-four hours after plating, the cells were dosed with various concentrations of the free base of Compound I solubilized in DMSO (final concentration 0.1%). The effect of the drug on tumor cell growth was determined using the neutral red cytotoxicity assay following five days of continuous treatment. Neutral red is a dye that is selectively taken up by viable cells by an ATP-dependent transport mechanism.

PC-3 = experiment: Growth inhibition, neutral red assay, PC-3; type: cell-based, human; conditions: Homo sapiens, PC-3; neutral red assay (Schmid et al.); read-out: IC50 (μM), Human Prostate Carcinoma PC3
Description: as §1

SMILES: CCN(CC)CCSC12CC(=O)OC1(C)/C(=C/c1ccc(S(C)(=O)=O)cc1)c1ccc(F)cc12 (racemic) [A, rac-threo-(E)-1-(N,N′-diethylaminoethanethio)-1-(butan-1′,4′-olido)-[3′,4′: 1,2]-6-fluoro-2-methyl-3-(p-methylsulfonylbenzylidene)-indan]
- Cyclooxygenase inhibitory activity, % Inhibition at 100 μM ([1]; 100 μM): <25%
- COX Inhibition [1]: −
- cGMP PDE inhibitory activity, % Inhibition at 10 μM [2]: <25%
- PDE Inhibition [2]: −
- Apoptosis ([3]; qualitative activity profile): ++
- Growth-inhibitory activity, % Inhibition at 100 μM [4]: 68%
- Growth Inhibition ([4]; qualitative activity profile): +++
- Mammary Gland Organ Culture [5]: ++
- Apoptosis-inducing activity, Fold induction at 100 μM [6]: <2.0 fold

SMILES: CCCCCC[C@@H]([C@@H](C)O)n1cnc2c(N)ncnc21 (racemic) [EHNA]
- IC50 ([7]; cGMP hydrolysis, 0.25 μM 3H-cGMP): > 100 µM
- IC50 [8]: 3.7 µM
- IC50 ([9]; 2.0 μM cAMP substrate, read-out: IC50, cAMP PDE activity in Peak B): 3.8 µM
- IC50 ([9]; read-out: IC50, cAMP PDE activity in Peak B with rolipram, 2.0 μM cAMP substrate, addition of 10 μM rolipram): 2.5 µM
- IC50 ([9]; read-out: IC50, cGMP PDE activity in Peak B, 2 μM cGMP substrate): 1.6 µM
- Apoptosis-inducing activity, Fold induction at 100 μM ([10]; 100 μM): <2.0 fold

SMILES: COc1cc(C=C2C(C)=C(CC(=O)O)c3cc(F)ccc32)cc(OC)c1OC [Compound B, (Z)-5-Fluoro-2-methyl-1-(3,4,5-trimethoxybenzylidene)-3-acetic acid]
- COX-I inhibition (FIG. 5) [1]: neither test compound B and E significantly inhibit COX-I
- COX Inhibition [1]: −
- inhibition at 100 µM [1]: < 25%
- cGMP PDE inhibitory activity, % Inhibition at 10 μM [2]: <25%
- PDE Inhibition [2]: +++
- IC50 [2]: 18 µM
- IC50 [11]: 58 µM
- EC50 ([3]; Homo sapiens, HT-29, 48 hours): ~175 µM
- competition with cGMP in binding of GST-cGB-PDE5 [12]: do not bind to the cGMP binding sites of PDE5
- fold induction at 100 µM ([10]; Homo sapiens, SW480, read-out: Apoptosis-inducing activity, Fold induction at 100 μM, 100 μM): > 2

SMILES: O=C(O)C1CCN(c2nc(NCc3ccc4c(c3)OCO4)c3cc(Cl)ccc3n2)CC1 [Compound E4021]
- sensitivity of peak B's cGMP PDE activity [13]: resistant
- Growth-inhibitory activity, % Inhibition at 100 μM [4]: <50%
- IC50 ([4]; HT-29 treated for 6 days, SRB assay, read-out: Growth inhibition (IC50)): > 100 µM
- competition with cGMP in binding of GST-cGB-PDE5 [12]: do not bind to the cGMP binding sites of PDE5

SMILES: COc1cc(/C=C2/C(C)=C(CC(=O)NCc3ccccc3)c3cc(F)ccc32)cc(OC)c1OC [Compound E, (Z)-5-Fluoro-2-methyl-1-(3,4,5-trimethoxybenzylidene)-3-indenylacetamide, N-benzyl]
- Ratio (IC50 Peak A/Peak B) [7]: 1.0
- competitive (with cGMP) binding to PDE 5 (peak A) [7]: does competitively (with cGMP) bind
- competitive (with cGMP) binding to PDE peak B [14]: competitively (with cGMP) binds
- COX-I inhibition (FIG. 5) [1]: neither test compound B and E significantly inhibit COX-I
- COX Inhibition [1]: −
- inhibition at 100 µM [1]: < 25%
- cGMP PDE inhibitory activity, % Inhibition at 10 μM [2]: 75%
- PDE Inhibition [2]: ++++
- IC50 [2]: 0.08 µM
- IC50 [11]: > 25 µM
- IC50 (Colo 205): 1.62 µM
- IC50 (PC-3): 0.9 µM
- competition with cGMP in binding of GST-cGB-PDE5 [12]: do not bind to the cGMP binding sites of PDE5
